Like-named read-outs stand apart in the source and are kept apart here.
Experiments:
Test in all cases: CDK inhibition assay (microfluidic LabChip, IC50 format)
CDK1/B = CDK1/B (Homo sapiens, UniProt P06493); assay type: biochemical
CDK2-CYCLINA = biological target: T1, CDK2-CYCLINA (Homo sapiens, UniProt P24941); assay type: biochemical; details: read-out: CDK2 CyclinA IC50
T1 construct: purchased Millipore

CDK7 CyclinH = CDK7 CyclinH (Homo sapiens, UniProt P50613); assay type: biochemical
CDK9-CYCLINT1 = biological target: T2, CDK9-CYCLINT1 (Homo sapiens, UniProt P50750); assay type: biochemical; details: read-out: CDK9 CyclinT1 IC50
T2 construct: purchased Carna

CDK4-CYCLIND1 = CDK4-CYCLIND1 (Homo sapiens, UniProt P11802); details: a second value in parentheses for some compounds
CDK6-CYCLIND3 = biological target: T3, CDK6-CYCLIND3 (Homo sapiens, UniProt Q00534); assay type: biochemical; details: Table 4a; read-out: CDK6 CyclinD3 IC50
T3 construct: purchased Carna

[1] = CDK4 CyclinD1 IC50, Table 4b, lower part

Sequence of CDK1/B (P06493 whole entry, species assumed): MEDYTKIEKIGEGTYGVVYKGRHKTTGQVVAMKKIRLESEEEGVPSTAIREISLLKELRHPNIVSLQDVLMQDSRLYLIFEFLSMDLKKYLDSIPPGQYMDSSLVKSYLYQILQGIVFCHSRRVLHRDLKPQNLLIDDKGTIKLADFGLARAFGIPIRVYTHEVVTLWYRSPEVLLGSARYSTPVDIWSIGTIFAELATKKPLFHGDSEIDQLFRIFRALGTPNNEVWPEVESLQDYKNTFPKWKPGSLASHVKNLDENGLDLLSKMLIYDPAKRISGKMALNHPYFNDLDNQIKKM
Sequence of CDK1/B (P14635 whole entry partner, species assumed): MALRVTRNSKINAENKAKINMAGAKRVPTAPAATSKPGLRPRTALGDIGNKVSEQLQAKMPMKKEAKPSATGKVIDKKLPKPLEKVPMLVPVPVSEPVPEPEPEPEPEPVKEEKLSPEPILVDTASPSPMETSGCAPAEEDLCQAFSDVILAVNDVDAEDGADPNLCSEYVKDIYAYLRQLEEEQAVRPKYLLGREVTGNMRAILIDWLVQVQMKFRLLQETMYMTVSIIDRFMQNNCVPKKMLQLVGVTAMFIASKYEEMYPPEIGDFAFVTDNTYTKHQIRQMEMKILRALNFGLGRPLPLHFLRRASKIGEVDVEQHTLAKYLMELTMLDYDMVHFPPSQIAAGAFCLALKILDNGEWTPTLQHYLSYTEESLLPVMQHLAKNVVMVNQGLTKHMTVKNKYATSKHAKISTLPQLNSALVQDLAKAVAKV
Sequence of CDK4-CYCLIND1 (P11802 whole entry): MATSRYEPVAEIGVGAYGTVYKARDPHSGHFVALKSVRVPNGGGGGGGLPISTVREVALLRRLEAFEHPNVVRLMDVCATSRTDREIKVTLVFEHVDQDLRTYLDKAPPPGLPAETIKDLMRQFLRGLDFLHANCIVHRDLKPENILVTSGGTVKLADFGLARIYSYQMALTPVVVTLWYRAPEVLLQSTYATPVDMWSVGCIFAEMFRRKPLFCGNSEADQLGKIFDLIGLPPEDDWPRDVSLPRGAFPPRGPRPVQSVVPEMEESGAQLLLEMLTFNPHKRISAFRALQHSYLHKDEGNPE
Sequence of CDK4-CYCLIND1 (P24385 whole entry partner): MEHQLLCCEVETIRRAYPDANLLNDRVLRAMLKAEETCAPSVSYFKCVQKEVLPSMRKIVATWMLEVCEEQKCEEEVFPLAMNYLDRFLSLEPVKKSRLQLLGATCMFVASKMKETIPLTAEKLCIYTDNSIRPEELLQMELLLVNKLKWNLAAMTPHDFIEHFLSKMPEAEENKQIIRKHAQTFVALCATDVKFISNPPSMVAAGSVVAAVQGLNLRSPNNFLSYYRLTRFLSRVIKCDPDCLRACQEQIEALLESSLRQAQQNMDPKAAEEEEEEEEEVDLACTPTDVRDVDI
Sequence of CDK7 CyclinH (P50613 whole entry): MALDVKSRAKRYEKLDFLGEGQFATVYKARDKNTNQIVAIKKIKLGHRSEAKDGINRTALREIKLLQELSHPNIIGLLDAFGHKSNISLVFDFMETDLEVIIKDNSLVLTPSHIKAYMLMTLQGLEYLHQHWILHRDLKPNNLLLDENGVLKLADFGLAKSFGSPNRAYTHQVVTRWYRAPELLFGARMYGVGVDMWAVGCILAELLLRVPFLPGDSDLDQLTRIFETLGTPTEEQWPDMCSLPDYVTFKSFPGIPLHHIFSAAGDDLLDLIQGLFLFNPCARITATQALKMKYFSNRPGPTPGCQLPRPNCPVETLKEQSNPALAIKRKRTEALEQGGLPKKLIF
Sequence of CDK7 CyclinH (P51946 whole entry partner): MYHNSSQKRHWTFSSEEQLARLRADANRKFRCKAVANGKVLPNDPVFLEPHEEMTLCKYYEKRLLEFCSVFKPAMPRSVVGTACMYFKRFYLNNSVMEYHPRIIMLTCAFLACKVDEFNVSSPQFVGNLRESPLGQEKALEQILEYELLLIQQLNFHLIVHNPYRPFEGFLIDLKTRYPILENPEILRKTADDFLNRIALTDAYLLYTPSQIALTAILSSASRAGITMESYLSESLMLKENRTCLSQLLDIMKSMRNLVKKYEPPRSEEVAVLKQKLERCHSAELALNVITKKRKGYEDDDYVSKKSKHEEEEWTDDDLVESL
Sequence of CDK7 CyclinH (P51948 whole entry partner): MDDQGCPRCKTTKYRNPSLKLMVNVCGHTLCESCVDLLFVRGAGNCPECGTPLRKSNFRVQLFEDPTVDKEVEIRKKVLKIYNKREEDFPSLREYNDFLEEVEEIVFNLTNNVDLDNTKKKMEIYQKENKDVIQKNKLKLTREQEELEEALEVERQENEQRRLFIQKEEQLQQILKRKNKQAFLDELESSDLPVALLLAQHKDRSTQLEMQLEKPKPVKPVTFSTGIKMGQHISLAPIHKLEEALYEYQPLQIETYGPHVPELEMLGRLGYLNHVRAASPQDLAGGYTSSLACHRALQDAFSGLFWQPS
T2 sequence (P50750 whole entry): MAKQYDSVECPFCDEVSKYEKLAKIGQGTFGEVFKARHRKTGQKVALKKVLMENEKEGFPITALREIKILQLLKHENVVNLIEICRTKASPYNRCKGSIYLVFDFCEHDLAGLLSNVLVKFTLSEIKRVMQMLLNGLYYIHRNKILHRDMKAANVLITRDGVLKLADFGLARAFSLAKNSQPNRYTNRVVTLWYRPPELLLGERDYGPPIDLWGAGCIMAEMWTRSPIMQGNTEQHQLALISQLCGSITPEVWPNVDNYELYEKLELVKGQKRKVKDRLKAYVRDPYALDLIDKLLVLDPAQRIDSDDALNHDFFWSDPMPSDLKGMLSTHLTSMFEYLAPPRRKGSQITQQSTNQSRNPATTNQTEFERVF
T2 sequence (O60563 whole entry partner): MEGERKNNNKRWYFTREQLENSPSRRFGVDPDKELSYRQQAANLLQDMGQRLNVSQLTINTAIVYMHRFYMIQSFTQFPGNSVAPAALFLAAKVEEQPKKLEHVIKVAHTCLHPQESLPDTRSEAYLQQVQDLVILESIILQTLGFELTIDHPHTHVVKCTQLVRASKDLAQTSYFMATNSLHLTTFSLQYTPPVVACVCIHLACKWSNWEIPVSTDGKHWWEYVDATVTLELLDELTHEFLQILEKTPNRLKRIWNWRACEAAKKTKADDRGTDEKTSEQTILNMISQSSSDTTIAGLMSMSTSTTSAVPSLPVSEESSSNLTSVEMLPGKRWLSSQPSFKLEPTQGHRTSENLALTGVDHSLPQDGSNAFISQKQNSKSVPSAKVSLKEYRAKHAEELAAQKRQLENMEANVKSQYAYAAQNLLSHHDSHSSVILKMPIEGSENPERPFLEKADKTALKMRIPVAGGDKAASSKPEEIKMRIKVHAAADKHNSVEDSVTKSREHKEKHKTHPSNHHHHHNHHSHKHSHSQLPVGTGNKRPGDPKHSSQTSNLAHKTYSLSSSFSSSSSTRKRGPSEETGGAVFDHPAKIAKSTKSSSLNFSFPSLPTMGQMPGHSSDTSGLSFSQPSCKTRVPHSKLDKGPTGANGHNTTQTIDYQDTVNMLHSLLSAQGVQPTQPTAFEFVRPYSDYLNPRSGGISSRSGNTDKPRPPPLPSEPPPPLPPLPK
T3 sequence (Q00534 whole entry): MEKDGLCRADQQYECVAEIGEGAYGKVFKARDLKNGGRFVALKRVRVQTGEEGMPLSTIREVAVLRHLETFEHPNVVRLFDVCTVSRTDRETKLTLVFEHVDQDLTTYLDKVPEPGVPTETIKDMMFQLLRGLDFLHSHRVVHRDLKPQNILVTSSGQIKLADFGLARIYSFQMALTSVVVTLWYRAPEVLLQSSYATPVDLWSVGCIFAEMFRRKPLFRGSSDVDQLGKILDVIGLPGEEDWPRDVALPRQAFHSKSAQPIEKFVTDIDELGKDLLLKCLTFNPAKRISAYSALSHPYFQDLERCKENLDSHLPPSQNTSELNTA
T3 sequence (P30281 whole entry partner): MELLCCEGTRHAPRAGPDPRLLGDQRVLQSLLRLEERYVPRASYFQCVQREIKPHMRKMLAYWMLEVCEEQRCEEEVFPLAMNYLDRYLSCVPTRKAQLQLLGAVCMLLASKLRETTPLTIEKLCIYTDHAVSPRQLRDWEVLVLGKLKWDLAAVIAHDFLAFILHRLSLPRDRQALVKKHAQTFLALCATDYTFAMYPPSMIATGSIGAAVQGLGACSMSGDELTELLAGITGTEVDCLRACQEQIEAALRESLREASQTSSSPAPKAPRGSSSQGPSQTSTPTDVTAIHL

SMILES | IC50 (CDK1/B; Table 4b, lower part) | IC50 (CDK2-CYCLINA; Table 4b, lower part) | IC50 (CDK7 CyclinH; Table 4b, lower part) | IC50 (CDK9-CYCLINT1; Table 4b, lower part) | IC50 (CDK4-CYCLIND1; [1]) | IC50 (CDK1/B; Table 4a) | IC50 (CDK2-CYCLINA; Table 4a) | IC50 (CDK7 CyclinH; Table 4a) | IC50 (CDK9-CYCLINT1; Table 4a) | IC50 (CDK4-CYCLIND1; CDK4 CyclinD1 IC50, Table 4a) | IC50 (CDK6-CYCLIND3)
O=C1NCC[C@@]12Cc1cnc(Nc3ccc(OCCO)cc3)nc1N(C1CCCC1)C2=O [Example D116, (S)-8-cyclopentyl-2-((4-(2-hydroxyethoxy)phenyl)amino)-5,8-dihydro-7H-spiro[pyrido[2,3-d]pyrimidine-6,3′-pyrrolidine]-2′,7-dione] | 232 nM | 31.3 nM | 3450 nM | < 3.2 nM | < 3.2 nM | – | – | – | – | – | –
CS(=O)(=O)N1CCC(Nc2ncc3c(n2)N(C24CC(C2)C4)C(=O)[C@]2(CCNC2=O)C3)CC1 [Example D123, (S)-8-(bicyclo[1.1.1]pentan-1-yl)-2-((1-(methylsulfonyl)piperidin-4-yl)amino)-5,8-dihydro-7H-spiro[pyrido[2,3-d]pyrimidine-6,3′-pyrrolidine]-2′,7-dione] | 22 nM | 4.19 nM | 880 nM | 19.3 nM | < 3.2 nM | – | – | – | – | – | –
CC(C)N1CCC(Nc2ncc3c(n2)N(C2CCCC2)C(=O)[C@]2(CCNC2=O)C3)CC1 [Example D125, (S)-8-cyclopentyl-2-((1-isopropylpiperidin-4-yl)amino)-5,8-dihydro-7H-spiro[pyrido[2,3-d]pyrimidine-6,3′-pyrrolidine]-2′,7-dione] | 1160 nM | 1140 nM | 557 nM | 20.5 nM | – | – | – | – | – | – | –
CN1CCN(c2ccc(Nc3ncc4c(n3)N(C3CCCC3)C(=O)N([C@H]3CCNC3)C4)cc2)CC1 [Example D71, (S)-1-cyclopentyl-7-((4-(4-methylpiperazin-1-yl)phenyl)amino)-3-(pyrrolidin-3-yl)-3,4-dihydropyrimido[4,5-d]pyrimidin-2(1H)-one] | – | – | – | – | – | > 10000 nM | > 10000 nM | > 10000 nM | > 10000 nM | 1960 nM | –
O=C1NCC[C@@]12Cc1cnc(N[C@H]3CC[C@H](NC4CCOCC4)CC3)nc1N(C1CCCC1)C2=O [Example D92, (S)-8-cyclopentyl-2-(((1r,4S)-4-((tetrahydro-2H-pyran-4-yl)amino)cyclohexyl)amino)-5,8-dihydro-7H-spiro[pyrido[2,3-d]pyrimidine-6,3′-pyrrolidine]-2′,7-dione] | – | – | – | – | – | 219 nM | 153 nM | 343 nM | < 3.2 nM | 5.56 nM | –
O=C1NCC[C@@]12Cc1cnc(N[C@H]3CC[C@H](NC4CCOCC4)CC3)nc1N(C13CC(C1)C3)C2=O [Example D93, (S)-8-(bicyclo[1.1.1]pentan-1-yl)-2-(((1r,4S)-4-((tetrahydro-2H-pyran-4-yl)amino)cyclohexyl)amino)-5,8-dihydro-7H-spiro[pyrido[2,3-d]pyrimidine-6,3′-pyrrolidine]-2′,7-dione] | – | – | – | – | – | 1100 nM | 723 nM | 1500 nM | 16.1 nM | 33.3 nM | –
CC(C)c1ccc(Nc2ncc3c(n2)N(C2CCCC2)C(=O)[C@]2(CCNC2=O)C3)cc1 [Example D115, (S)-8-cyclopentyl-2-((4-isopropylphenyl)amino)-5,8-dihydro-7H-spiro[pyrido[2,3-d]pyrimidine-6,3′-pyrrolidine]-2′,7-dione] | 563 nM | 135 nM | > 10000 nM | 9.03 nM | – | – | – | – | – | – | –
CN1CCN(c2ccc(Nc3ncc4c(n3)N(C3CCCC3)C(=O)N(c3ccccc3F)C4)cc2F)CC1 [Example D80, 1-cyclopentyl-7-((3-fluoro-4-(4-methylpiperazin-1-yl)phenyl)amino)-3-(2-fluorophenyl)-3,4-dihydropyrimido[4,5-d]pyrimidin-2(1H)-one] | – | – | – | – | – | > 10000 nM | 7590 nM | > 10000 nM | > 10000 nM | 3.43 nM | –
CN1CCN(c2ccc(Nc3ncc4c(n3)N(C3CCCC3)C(=O)N([C@@H]3CCNC3)C4)cc2)CC1 [Example D74, (R)-1-cyclopentyl-7-((4-(4-methylpiperazin-1-yl)phenyl)amino)-3-(pyrrolidin-3-yl)-3,4-dihydropyrimido[4,5-d]pyrimidin-2(1H)-one] | – | – | – | – | – | > 10000 nM | > 10000 nM | > 10000 nM | > 10000 nM | 2740 nM | –

Continued, values first:

IC50 (CDK1/B; Table 4b, lower part) | IC50 (CDK2-CYCLINA; Table 4b, lower part) | IC50 (CDK7 CyclinH; Table 4b, lower part) | IC50 (CDK9-CYCLINT1; Table 4b, lower part) | IC50 (CDK4-CYCLIND1; [1]) | IC50 (CDK1/B; Table 4a) | IC50 (CDK2-CYCLINA; Table 4a) | IC50 (CDK7 CyclinH; Table 4a) | IC50 (CDK9-CYCLINT1; Table 4a) | IC50 (CDK4-CYCLIND1; CDK4 CyclinD1 IC50, Table 4a) | IC50 (CDK6-CYCLIND3) | SMILES
295 nM | 40.4 nM | 276 nM | > 10000 nM | < 3.2 nM | – | – | – | – | – | – | O=C1NCC[C@@]12Cc1cnc(Nc3ccc(N4CCN(C5CC5)CC4)cc3)nc1N(C1CCCC1)C2=O [Example D202, (S)-8-cyclopentyl-2-((4-(4-cyclopropylpiperazin-1-yl)phenyl)amino)-5,8-dihydro-7H-spiro[pyrido[2,3-d]pyrimidine-6,3′-pyrrolidine]-2′,7-dione]
464 nM | 126 nM | 642 nM | < 3.2 nM | < 3.2 nM | – | – | – | – | – | – | CC(C)N1CC2(CN(c3ccc(Nc4ncc5c(n4)N(C4CCCC4)C(=O)[C@]4(CCNC4=O)C5)cc3)C2)C1 [Example D102, (S)-8-cyclopentyl-2-((4-(6-isopropyl-2,6-diazaspiro[3.3]heptan-2-yl)phenyl)amino)-5,8-dihydro-7H-spiro[pyrido[2,3-d]pyrimidine-6,3′-pyrrolidine]-2′,7-dione]
– | – | – | – | – | 172 nM | 54.5 nM | 134 nM | < 3.2 nM | < 3.2 nM | – | CN1CCN(C2CCN(c3ccc(Nc4ncc5c(n4)N(C4CCCC4)C(=O)[C@]4(CCNC4=O)C5)cc3F)CC2)CC1 [Example D105, (S)-8-cyclopentyl-2-((3-fluoro-4-(4-(4-methylpiperazin-1-yl)piperidin-1-yl)phenyl)amino)-5,8-dihydro-7H-spiro[pyrido[2,3-d]pyrimidine-6,3′-pyrrolidine]-2′,7-dione]
205 nM | 89.8 nM | 222 nM | 4.31 nM | < 3.2 nM | – | – | – | – | – | – | CN1CCC(c2ccc(Nc3ncc4c(n3)N(C3CCCC3)C(=O)[C@]3(CCNC3=O)C4)cc2)CC1 [Example D135, (S)-8-cyclopentyl-2-((4-(1-methylpiperidin-4-yl)phenyl)amino)-5,8-dihydro-7H-spiro[pyrido[2,3-d]pyrimidine-6,3′-pyrrolidine]-2′,7-dione]
1060 nM | 242 nM | > 10000 nM | 12.3 nM | – | – | – | – | – | – | – | CC(C)c1ccc(Nc2ncc3c(n2)N(C2CCCC2)C(=O)[C@]2(CCNC2=O)C3)cc1F [Example D130, (S)-8-cyclopentyl-2-((3-fluoro-4-isopropylphenyl)amino)-5,8-dihydro-7H-spiro[pyrido[2,3-d]pyrimidine-6,3′-pyrrolidine]-2′,7-dione]
– | – | – | – | – | – | 744 nM | 3160 nM | 71.9 nM | 9.05 nM | 13.7 nM | Cc1cc(N2CCN(C(C)C)CC2)ccc1Nc1ncc2c(n1)N(C1CCCC1)C(=O)[C@]1(CCNC1=O)C2 [Example D164, (S)-8-cyclopentyl-2-((4-(4-isopropylpiperazin-1-yl)-2-methylphenyl)amino)-5,8-dihydro-7H-spiro[pyrido[2,3-d]pyrimidine-6,3′-pyrrolidine]-2′,7-dione]
– | – | – | – | – | – | 79.5 nM | 673 nM | 4.81 nM | 2.72 nM | 6.6 nM | O=C1NCC[C@@]12Cc1cnc(Nc3ccc(N4CC5(CNC5)C4)cc3)nc1N(C1CCCC1)C2=O [Example D172, (S)-2-((4-(2,6-diazaspiro[3.3]heptan-2-yl)phenyl)amino)-8-cyclopentyl-5,8-dihydro-7H-spiro[pyrido[2,3-d]pyrimidine-6,3′-pyrrolidine]-2′,7-dione]

From patent publication US20230048132A1, “CYCLIN-DEPENDENT KINASE INHIBITORS” (SPV THERAPEUTICS INC., priority 2018, published 2023)
